The values that follow come from PMC5677254, “Design, Synthesis, and Characterization of N-Oxide-Containing Heterocycles with in Vivo Sterilizing Antitubercular Activity” (Journal of Medicinal Chemistry, 2017).

Series [1] has as its system MRC-5 human lung fibroblast cell line. Details: method as in PMID 27508879. Conditions: cited from earlier work.
Series [2] relates to Mtb H37Rv (ATCC 27294). Details: method as in PMID 27508879. Conditions: cited from earlier work.
Series [3] concerns Mtb H37Rv (ATCC 27294). Description: Resazurin microtiter assay (REMA), MIC90 against bacteria in active state. The class given is cell-based. The note with it: Mycobacterium tuberculosis, actively replicating M. tuberculosis H37Rv, REMA; for MIC90: read-out: MIC90. On the technique in general: The colour change of resazurin is a common sign of viable cells or microbes.
The nature of series [4]: Cytotoxicity against MRC-5 cell line. Conditions: human, cytotoxicity IC50, MRC-5 cell line.
In series [5] the test system is dormant M. tuberculosis H37Rv. Briefly: microbe, parasite or virus in culture. The class given is cell-based. Conditions: Mycobacterium tuberculosis, dormant (nonreplicating) M. tuberculosis H37Rv.
The test system of series [6] is Candida albicans (ATCC 10231). Description: Spectrum of activity, OD570 after 48 h. The class given is cell-based. Conditions: ATCC10231, read-out: MIC90 (antimicrobial activity). The method, then:
(§1) Determination of Minimal Inhibitory Concentration (MIC90) Against Bacteria in Dormant […]
(§2) The selective compounds (SI ≥ 10) were tested against the mycobacterium in a dormant state. The cultures were thawed, diluted in Middlebrook 7H12 broth, and sonicated for 5 s. The cultures were diluted to obtain the concentration between […] and 2 × 10^6 CFU/mL. TwoHfold serial dilutions of the compounds were prepared in a volume of […] in white 96Hwell microtiter plates, followed by the addition of […] of the cell suspension. The microplate cultures were placed under anaerobic conditions (oxygen concentration less than 0.16%) by using an Anoxomat model WS8080 (MART Microbiology) followed by two cycles of evacuation and filling with a mixture of 10% hydrogen (H2), 5% carbon dioxide (CO2), and the balance with nitrogen (N2). An anaerobic indicator strip was placed inside the chamber to visually confirm the removal of oxygen. The plates were incubated at 37°C for 10 days and then transferred to an ambient gaseous condition (5% CO2H enriched air) incubator for a 28 h “recovery.” On day 11 (after the 28Hh aerobic recovery), we determined the luminescence and calculated the MIC90.4
(§3) To establish the spectrum activity, we determined the MIC90 against E. coli (ATCC 25922) and S. aureus (ATCC 29213) by measuring the optical density at 570 nm after 16 h of incubation in Mueller–Hinton II broth (Becton Dickinson, Sparks; Maryland, United States) and against C. albicans (ATCC 10231) at OD570 after 48 h in Cellgro RPMI 1640 medium (Mediatech Inc., Manassas, Virginia, United States). The MIC was defined as the lowest concentration resulting in 90% reduction in absorption relative to that of untreated control cultures.
(§4) Determination of Minimal Inhibitory Concentration Against Isogenic Monoresistant Strains

The subject of series [7] is Escherichia coli (ATCC 25922). Description: Spectrum of activity, OD570 after 16 h. The class given is cell-based. Conditions: ATCC25922, read-out: MIC90 (antimicrobial activity). The method, then:
as §1, §2, §3, §4

Series [8] deals with Staphylococcus aureus (ATCC 29213). Briefly: Spectrum of activity, OD570 after 16 h. The class given is cell-based. Conditions: ATCC29213, read-out: MIC90 (antimicrobial activity). The method, then:
as §1, §2, §3, §4

pIC50: −log10 of the molar value. In brackets after ≈: the same amount, converted by molar mass. Several values for one entry are separate records, joined by “and”; a condition that tells them apart may be missing. Identical values can stand only once. Like-named read-outs stand apart in the source and are kept apart here.

Broadly, the pIC50 is the negative decadic logarithm of the IC50, by convention in mol/L. Broadly, the IC50 is the point on the concentration scale where inhibition reaches its midpoint. Lower therefore signals greater potency. What is called MIC is the lowest concentration that inhibits growth of the organism. A lower MIC goes with a more susceptible organism.

On to `O=C(N/N=C/c1ccc(Oc2no[n+]([O-])c2S(=O)(=O)c2ccccc2)cc1)c1ccncc1` [(E)-4-(4-((2-isonicotinoylhydrazono)methyl)phenoxy)-3-(phenylsulfonyl)-1,2,5-oxadiazole 2-oxide], for which the pIC50 in series [1] was 4.37. For the same compound, the MIC90 in the series on Mtb H37Rv (ATCC 27294) [2] is 1 µM and 1.0 µM.

On to `NC(=O)c1c(COc2ccccc2/C=N/NC(=O)c2ccncc2)no[n+]1[O-]` [Compound 4a, (E)-3-Carbamoyl-4-((2-((2-isonicotinoylhydrazono)methyl)phenoxy)methyl)-1,2,5-oxadiazole 2-Oxide], for which the MIC90 in the series with Mtb H37Rv (ATCC 27294) [3] is 0.16 µg/mL (≈ 0.418 µM); in series [5], 2.95 µg/mL (≈ 7.72 µM). Besides, the IC50 in series [4] was 327 µg/mL (≈ 854 µM).

As for `NC(=O)c1c(COc2cccc(/C=N/NC(=O)c3ccncc3)c2)no[n+]1[O-]` [Compound 4b, (E)-3-Carbamoyl-4-((3-((2-isonicotinoylhydrazono)methyl)phenoxy)methyl)-1,2,5-oxadiazole 2-Oxide], the MIC90 amounted to 0.15 µg/mL (≈ 0.392 µM) with Mtb H37Rv (ATCC 27294) [3] and 1.6 µg/mL (≈ 4.18 µM) in series [5]. This compound displayed an IC50 in series [4] of 490 µg/mL (≈ 1280 µM).

On to `NC(=O)c1c(COc2ccc(/C=N/NC(=O)c3ccncc3)cc2)no[n+]1[O-]` [Compound 4c, (E)-3-Carbamoyl-4-((4-((2-isonicotinoylhydrazono)methyl)phenoxy)methyl)-1,2,5-oxadiazole 2-Oxide], for which the MIC90 came out at 0.16 µg/mL (≈ 0.418 µM) in the series on Mtb H37Rv (ATCC 27294) [3] and 0.78 µg/mL (≈ 2.04 µM) in series [5]. Moreover, in series [4], the IC50 came out at 443 µg/mL (≈ 1160 µM).

As to `O=C(N/N=C/c1ccc2no[n+]([O-])c2c1)c1ccccc1` [Compound 9, (E)-6-((2-Benzoylhydrazono)methyl)benzo[c][1,2,5]oxadiazole 1-Oxide], in the series on Mtb H37Rv (ATCC 27294) [3], the MIC90 is 2.4 µg/mL (≈ 8.5 µM). The compound also had an IC50 in series [4] of 36.8 µg/mL (≈ 130 µM).

For the compound `CC(C)(C)c1ccc(C(=O)N/N=C/c2ccc3no[n+]([O-])c3c2)cc1` [Compound 10, (E)-6-((2-(4-(tert-Butyl)benzoyl)hydrazono)methyl)benzo[c][1,2,5]oxadiazole 1-Oxide], the MIC90 with Mtb H37Rv (ATCC 27294) [3] was found to be 1.3 µg/mL (≈ 3.84 µM). This compound gave an IC50 in series [4] of 8.5 µg/mL (≈ 25.1 µM).

For `O=C(N/N=C/c1ccc2no[n+]([O-])c2c1)c1ccc([N+](=O)[O-])cc1` [Compound 11, (E)-6-((2-(4-Nitrobenzoyl)hydrazono)methyl)benzo[c][1,2,5]oxadiazole 1-Oxide], the MIC90 in series [6] is over 200 µM; with Mtb H37Rv (ATCC 27294) [3], 1.73 µg/mL (≈ 5.29 µM); in series [7] it was over 200 µM; in series [8], over 200 µM. The MIC with Mtb H37Rv (ATCC 27294) [3] was over 62 µM.

On to `O=C(N/N=C/c1ccc2no[n+]([O-])c2c1)c1ccccc1O` [Compound 12, (E)-6-((2-(2-Hydroxybenzoyl)hydrazono)methyl)benzo[c][1,2,5]oxadiazole 1-Oxide], for which, in the series on Mtb H37Rv (ATCC 27294) [3], 16.4 µg/mL was the least that counted as inhibitory (MIC).

`O=C(N/N=C/c1ccc2no[n+]([O-])c2c1)c1cccc(O)c1` [Compound 13, (E)-6-((2-(3-Hydroxybenzoyl)hydrazono)methyl)benzo[c][1,2,5]oxadiazole 1-Oxide]: the MIC90 in the series with Mtb H37Rv (ATCC 27294) [3] is over 25 µg/mL.

`O=C(N/N=C/c1ccc2no[n+]([O-])c2c1)c1ccc(O)cc1` [Compound 14, (E)-6-((2-(4-Hydroxybenzoyl)hydrazono)methyl)benzo[c][1,2,5]oxadiazole 1-Oxide]: the MIC90 in series [6] was over 200 µM; with Mtb H37Rv (ATCC 27294) [3], over 25 µg/mL; in series [7], over 200 µM; in series [8] it was over 200 µM.

Take `Nc1ccccc1C(=O)N/N=C/c1ccc2no[n+]([O-])c2c1` [Compound 15, (E)-6-((2-(2-Aminobenzoyl)hydrazono)methyl)benzo[c][1,2,5]oxadiazole 1-Oxide]: the MIC90 in the series with Mtb H37Rv (ATCC 27294) [3] was determined as 3.7 µg/mL (≈ 12.4 µM). The same compound returned an IC50 in series [4] of 36.4 µg/mL (≈ 122 µM).

Regarding `Nc1cccc(C(=O)N/N=C/c2ccc3no[n+]([O-])c3c2)c1` [Compound 16, (E)-6-((2-(3-Aminobenzoyl)hydrazono)methyl)benzo[c][1,2,5]oxadiazole 1-Oxide], in the series on Mtb H37Rv (ATCC 27294) [3], the MIC90 was found to be 5.3 µg/mL (≈ 17.8 µM). This compound also returned an IC50 in series [4] of 24.4 µg/mL (≈ 82.1 µM).

In the case of `Nc1ccc(C(=O)N/N=C/c2ccc3no[n+]([O-])c3c2)cc1` [Compound 17, (E)-6-((2-(4-Aminobenzoyl)hydrazono)methyl)benzo[c][1,2,5]oxadiazole 1-Oxide], the MIC90 is over 200 µM in series [6], 3.16 µg/mL (≈ 10.6 µM) in the series on Mtb H37Rv (ATCC 27294) [3], over 200 µM in series [7] and over 200 µM in series [8]. Also, the IC50 in series [4] was 250 µg/mL (≈ 841 µM).

Turning to `N#Cc1c(-c2ccccc2)[n+]([O-])c2ccc(C3OCCO3)cc2[n+]1[O-]` [Compound 19], the MIC90 in the series on Mtb H37Rv (ATCC 27294) [3] was 10.3 µg/mL (≈ 30.7 µM). The IC50 in series [4] was found to be 10.7 µg/mL (≈ 31.9 µM).

`Cc1ccc(-c2c(C#N)[n+]([O-])c3cc(C4OCCO4)ccc3[n+]2[O-])cc1` [Compound 20, 3-Cyano-6-(1,3-dioxolan-2-yl)-2-(p-tolyl)quinoxaline 1,4-Dioxide]: in the series on Mtb H37Rv (ATCC 27294) [3], the MIC90 was 5.7 µg/mL (≈ 16.3 µM). In addition, inhibition in series [4] was half-maximal at 6.2 µg/mL (≈ 17.7 µM) (IC50).

Take `N#Cc1c(-c2ccc(Cl)cc2)[n+]([O-])c2ccc(C3OCCO3)cc2[n+]1[O-]` [Compound 21, 2-(4-Chlorophenyl)-3-cyano-6-(1,3-dioxolan-2-yl)quinoxaline 1,4-Dioxide]: in the series on Mtb H37Rv (ATCC 27294) [3], the MIC90 was 6.4 µg/mL (≈ 17.3 µM). In series [4], this compound had an IC50 of 5 µg/mL (≈ 13.5 µM).

Regarding `COc1ccc(-c2c(C#N)[n+]([O-])c3cc(C4OCCO4)ccc3[n+]2[O-])cc1` [Compound 22, 3-Cyano-6-(1,3-dioxolan-2-yl)-2-(4-methoxyphenyl)quinoxaline 1,4-Dioxide], the MIC90 in the series with Mtb H37Rv (ATCC 27294) [3] worked out at 4.4 µg/mL (≈ 12 µM). Besides, the IC50 in series [4] was determined as 5.5 µg/mL (≈ 15.1 µM).

Consider `N#Cc1c(-c2ccc(F)cc2)[n+]([O-])c2ccc(C3OCCO3)cc2[n+]1[O-]` [Compound 23, 3-Cyano-6-(1,3-dioxolan-2-yl)-2-(4-fluorophenyl)quinoxaline 1,4-Dioxide], for which, in the series with Mtb H37Rv (ATCC 27294) [3], the MIC90 came out at 8.6 µg/mL (≈ 24.3 µM). In series [4], this compound yielded an IC50 of 7.7 µg/mL (≈ 21.8 µM).

`N#Cc1c(-c2ccc(OC(F)(F)F)cc2)[n+]([O-])c2ccc(C3OCCO3)cc2[n+]1[O-]` [Compound 24, 3-Cyano-6-(1,3-dioxolan-2-yl)-2-(4-(trifluoromethoxy)phenyl)quinoxaline 1,4-Dioxide]: in the series on Mtb H37Rv (ATCC 27294) [3], the MIC90 amounted to 6.5 µg/mL (≈ 15.5 µM). Besides, in series [4], 28 µg/mL (≈ 66.8 µM) corresponded to half-maximal inhibition (IC50).

As to `N#Cc1c(-c2ccco2)[n+]([O-])c2ccc(C3OCCO3)cc2[n+]1[O-]` [Compound 25, 3-Cyano-6-(1,3-dioxolan-2-yl)-2-(furan-2-yl)quinoxaline 1,4-Dioxide], in the series on Mtb H37Rv (ATCC 27294) [3], the MIC90 was found to be 1.7 µg/mL (≈ 5.23 µM). In series [4], the IC50 amounted to 11.6 µg/mL (≈ 35.7 µM).

For `N#Cc1c(-c2cccs2)[n+]([O-])c2ccc(C3OCCO3)cc2[n+]1[O-]` [Compound 26, 3-Cyano-6-(1,3-dioxolan-2-yl)-2-(thiophen-2-yl)quinoxaline 1,4-Dioxide], the MIC90 in the series on Mtb H37Rv (ATCC 27294) [3] was found to be 4.1 µg/mL (≈ 12 µM). Further, 5.9 µg/mL (≈ 17.3 µM) corresponded to half-maximal inhibition in series [4] (IC50).

On to `N#Cc1c(-c2ccccc2)[n+]([O-])c2ccc(/C=N/NC(=O)c3ccncc3)cc2[n+]1[O-]` [Compound 28], for which, in the series on Mtb H37Rv (ATCC 27294) [3], the MIC90 stood at 16.3 µg/mL (≈ 39.7 µM). Also, the IC50 in series [4] turned out to be 8.6 µg/mL (≈ 21 µM).

Turning to `NNC(=O)c1ccncc1` [isoniazid, reference compound], the MIC90 in the series on Mtb H37Rv (ATCC 27294) [3] is 0.014 µg/mL (≈ 0.102 µM).
